In the supplement of paper PMC10307832:

What was measured:
Assay in all cases: relative viability (nuclei count vs DMSO), 5 days (fraction); higher = more cells survive
NCI-H1755 = system: NCI-H1755
Outline: (§1)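 After 5 days of treatment, lung cancer cells in 1536-well plates were fixed and stained in a single step (final 0.05% Triton X-100, 1% formaldehyde, 1 ug/ml Hoechst) and their nuclei counted on 4× images. Treatment had been applied by pin tool the day after seeding as one drug alone or as a fixed anchor-drug dose with five library-drug doses (not always all listed) in √10 steps. Relative viability is the nuclei count of treated wells divided by that of vehicle wells, and values are medians of duplicate plates.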

SK-LU-1 = system: SK-LU-1
Outline: as §1

PC-14 = system: PC-14
Outline: as §1

H3255 = system: H3255
Outline: as §1

HCC-15 = system: HCC-15
Outline: as §1

NCI-H1437 = system: NCI-H1437
Outline: as §1

NCI-H1915 = system: NCI-H1915
Outline: as §1

NCI-H2405 = system: NCI-H2405
Outline: as §1

NCI-H2023 = system: NCI-H2023
Outline: as §1

NCI-H460 = system: NCI-H460
Outline: as §1

UMC-11 = system: UMC-11
Outline: as §1

NCI-H3122 = system: NCI-H3122
Outline: as §1

A-427 = system: A-427
Outline: as §1

LXF-289 = system: LXF-289
Outline: as §1

HARA = system: HARA
Outline: as §1

NCI-H596 = system: NCI-H596
Outline: as §1

NCI-H2009 = system: NCI-H2009
Outline: as §1

PC-3 [JPC-3] = system: PC-3 [JPC-3]
Outline: as §1

NCI-H441 = system: NCI-H441
Outline: as §1

NCI-H650 = system: NCI-H650
Outline: as §1

NCI-H1975 = system: NCI-H1975
Outline: as §1

HCC-366 = system: HCC-366
Outline: as §1

`O=c1[nH]c2ccccc2n1C1CCN(CCCC(c2ccc(F)cc2)c2ccc(F)cc2)CC1` [Pimozide] + CC(C)C[C@H](NC(=O)[C@H](Cc1ccccc1)NC(=O)c1cnccn1)B(O)O [Bortezomib] (partner 0.002 µM) gave a relative viability (NCI-H1755; first compound 0.08 µM) of 0.881, a relative viability (NCI-H1755; first compound 0.253 µM) of 0.91 and a relative viability (NCI-H1755; first compound 0.8 µM) of 0.844. It also gave a relative viability (NCI-H1755; first compound 2.53 µM) of 0.937, a relative viability (NCI-H1755; first compound 8 µM) of 0.674 and a relative viability (SK-LU-1; first compound 0.08 µM) of 1.09. It also gave a relative viability (SK-LU-1; first compound 0.253 µM) of 1.21, a relative viability (SK-LU-1; first compound 0.8 µM) of 0.741 and a relative viability (SK-LU-1; first compound 2.53 µM) of 0.899. The relative viability (SK-LU-1; first compound 8 µM) was 1.11, the relative viability (PC-14; first compound 0.08 µM) was 0.855 and the relative viability (PC-14; first compound 0.253 µM) was 0.812. For the same compound, the relative viability (PC-14; first compound 0.8 µM) was 0.844, the relative viability (PC-14; first compound 2.53 µM) was 0.912 and the relative viability (PC-14; first compound 8 µM) was 0.81. For the same compound, the relative viability (H3255; first compound 0.253 µM) was 0.802, the relative viability (H3255; first compound 0.8 µM) was 0.732 and the relative viability (H3255; first compound 2.53 µM) was 0.759. For the same compound, the relative viability (H3255; first compound 8 µM) was 0.732, the relative viability (HCC-15; first compound 0.08 µM) was 1.12 and the relative viability (HCC-15; first compound 0.253 µM) was 0.994. For the same compound, the relative viability (HCC-15; first compound 0.8 µM) was 0.848, the relative viability (HCC-15; first compound 2.53 µM) was 0.963 and the relative viability (HCC-15; first compound 8 µM) was 0.908. For the same compound, the relative viability (NCI-H1437; first compound 0.08 µM) was 0.492, the relative viability (NCI-H1437; first compound 0.253 µM) was 0.45 and the relative viability (NCI-H1437; first compound 0.8 µM) was 0.423. It also gave a relative viability (NCI-H1437; first compound 2.53 µM) of 0.507, a relative viability (NCI-H1437; first compound 8 µM) of 0.403 and a relative viability (NCI-H1915; first compound 0.08 µM) of 0.947. The relative viability (NCI-H1915; first compound 0.253 µM) was 0.908, the relative viability (NCI-H1915; first compound 0.8 µM) was 0.537 and the relative viability (NCI-H1915; first compound 2.53 µM) was 0.936. The relative viability (NCI-H1915; first compound 8 µM) was 0.918, the relative viability (NCI-H2405; first compound 0.08 µM) was 0.761 and the relative viability (NCI-H2405; first compound 0.253 µM) was 0.979. The relative viability (NCI-H2405; first compound 0.8 µM) was 0.979, the relative viability (NCI-H2405; first compound 2.53 µM) was 0.896 and the relative viability (NCI-H2405; first compound 8 µM) was 0.984. It also gave a relative viability (NCI-H2023; first compound 0.08 µM) of 0.973, a relative viability (NCI-H2023; first compound 0.253 µM) of 0.996 and a relative viability (NCI-H2023; first compound 0.8 µM) of 0.74. The relative viability (NCI-H2023; first compound 2.53 µM) was 0.884, the relative viability (NCI-H2023; first compound 8 µM) was 0.581 and the relative viability (NCI-H460; first compound 0.08 µM) was 1.09. It also gave a relative viability (NCI-H460; first compound 0.253 µM) of 0.933, a relative viability (NCI-H460; first compound 0.8 µM) of 0.992 and a relative viability (NCI-H460; first compound 2.53 µM) of 0.993. The relative viability (NCI-H460; first compound 8 µM) was 1.04, the relative viability (UMC-11; first compound 0.08 µM) was 0.716 and the relative viability (UMC-11; first compound 0.253 µM) was 0.802. It also gave a relative viability (UMC-11; first compound 0.8 µM) of 0.686, a relative viability (UMC-11; first compound 2.53 µM) of 0.772 and a relative viability (UMC-11; first compound 8 µM) of 0.52. It also gave a relative viability (NCI-H3122; first compound 0.08 µM) of 0.983, a relative viability (NCI-H3122; first compound 0.253 µM) of 0.959 and a relative viability (NCI-H3122; first compound 0.8 µM) of 1.01. For the same compound, the relative viability (NCI-H3122; first compound 2.53 µM) was 0.981, the relative viability (NCI-H3122; first compound 8 µM) was 1.01 and the relative viability (A-427; first compound 0.08 µM) was 0.947. The relative viability (A-427; first compound 0.253 µM) was 0.965, the relative viability (A-427; first compound 0.8 µM) was 0.965 and the relative viability (A-427; first compound 2.53 µM) was 0.956. It also gave a relative viability (A-427; first compound 8 µM) of 0.903, a relative viability (LXF-289; first compound 0.08 µM) of 0.989 and a relative viability (LXF-289; first compound 0.253 µM) of 0.966. The relative viability (LXF-289; first compound 0.8 µM) was 0.917, the relative viability (LXF-289; first compound 2.53 µM) was 0.94 and the relative viability (LXF-289; first compound 8 µM) was 0.865. The relative viability (HARA; first compound 0.08 µM) was 0.857, the relative viability (HARA; first compound 0.253 µM) was 1.16 and the relative viability (HARA; first compound 0.8 µM) was 0.937. It also gave a relative viability (HARA; first compound 2.53 µM) of 1.17, a relative viability (HARA; first compound 8 µM) of 1.06 and a relative viability (NCI-H596; first compound 0.08 µM) of 0.974. The relative viability (NCI-H596; first compound 0.253 µM) was 0.968, the relative viability (NCI-H596; first compound 0.8 µM) was 1 and the relative viability (NCI-H596; first compound 2.53 µM) was 0.994. The relative viability (NCI-H596; first compound 8 µM) was 0.935, the relative viability (NCI-H2009; first compound 0.08 µM) was 0.999 and the relative viability (NCI-H2009; first compound 0.253 µM) was 0.999. It also gave a relative viability (NCI-H2009; first compound 0.8 µM) of 0.879, a relative viability (NCI-H2009; first compound 2.53 µM) of 0.888 and a relative viability (NCI-H2009; first compound 8 µM) of 0.769. The relative viability (PC-3 [JPC-3]; first compound 0.253 µM) was 0.803, the relative viability (PC-3 [JPC-3]; first compound 0.8 µM) was 0.726 and the relative viability (PC-3 [JPC-3]; first compound 2.53 µM) was 0.884. The relative viability (PC-3 [JPC-3]; first compound 8 µM) was 0.667, the relative viability (NCI-H441; first compound 0.08 µM) was 0.692 and the relative viability (NCI-H441; first compound 0.253 µM) was 0.366. For the same compound, the relative viability (NCI-H441; first compound 0.8 µM) was 0.325, the relative viability (NCI-H441; first compound 2.53 µM) was 0.451 and the relative viability (NCI-H441; first compound 8 µM) was 0.336. It also gave a relative viability (NCI-H650; first compound 0.08 µM) of 0.797, a relative viability (NCI-H650; first compound 0.253 µM) of 0.787 and a relative viability (NCI-H650; first compound 0.8 µM) of 0.704. The relative viability (NCI-H650; first compound 2.53 µM) was 0.718, the relative viability (NCI-H650; first compound 8 µM) was 0.747 and the relative viability (NCI-H1975; first compound 0.08 µM) was 0.338. For the same compound, the relative viability (NCI-H1975; first compound 0.253 µM) was 0.39, the relative viability (NCI-H1975; first compound 0.8 µM) was 0.398 and the relative viability (NCI-H1975; first compound 2.53 µM) was 0.337. It also gave a relative viability (NCI-H1975; first compound 8 µM) of 0.355, a relative viability (HCC-366; first compound 0.08 µM) of 1.01 and a relative viability (HCC-366; first compound 0.253 µM) of 0.999. It also gave a relative viability (HCC-366; first compound 0.8 µM) of 0.985, a relative viability (HCC-366; first compound 2.53 µM) of 1.03 and a relative viability (HCC-366; first compound 8 µM) of 1.01.
